Experimental data: patent US20020026053A1, “Novel 3-(substituted) -2- indolinones compounds and use thereof as inhibitors of protein kinase activity” (priority 1997, published 2002)

Tested on: FLK-1 receptor
Test: FLK-1 Assay (cellular/catalytic ELISA, VEGF-stimulated phosphotyrosine)
Format: cell-based
Set-up: concentration or dose not given beside the values
Conditions: protocol P.110
Outline: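 NIH3T3 C7#3 cells engineered to express Flk-1 were serum-starved overnight (0.1% FBS), then exposed to compound for 2 h at 37 °C (final dilution 1:200, 0.5% DMSO) before VEGF stimulation. Lysates captured on anti-FLK-1 antiserum plates; phosphotyrosine detected by UB40 antibody/POD-ABTS ELISA versus untreated controls.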

| SMILES | Flk Kinase % Inhibition (P.110) |
| --- | --- |
| O=C1Nc2ccc(S(=O)(=O)N3CCOCC3)cc2C1=Cc1cccc(Oc2ccc(Cl)c(Cl)c2)c1 [10738/F03] | 9.0% |
| COc1ccc(C=C2C(=O)Nc3ccc(S(=O)(=O)N4CCOCC4)cc32)cc1O [10738/F04] | −32.3% |
| O=C1Nc2ccc(S(=O)(=O)N3CCOCC3)cc2C1=Cc1cc(O)ccc1[N+](=O)[O-] [10738/F05] | 3.3% |
| O=C1Nc2ccc(S(=O)(=O)N3CCOCC3)cc2C1=Cc1cccc(O)c1O [10738/F06] | −12.6% |
| O=C1Nc2ccc(S(=O)(=O)N3CCOCC3)cc2C1=Cc1cc(O)cc(O)c1 [10738/F07] | 6.4% |
| O=C1Nc2ccc(S(=O)(=O)N3CCOCC3)cc2C1=Cc1ccc(Cl)c(Cl)c1 [10738/F08] | 16.8% |
| COc1ccccc1C=C1C(=O)Nc2ccc(S(=O)(=O)N3CCOCC3)cc21 [10738/F09] | 1.7% |
| CC(C)c1ccc(C=C2C(=O)Nc3ccc(S(=O)(=O)N4CCOCC4)cc32)cc1 [10738/F10] | 9.5% |
| CCCOc1ccc(C=C2C(=O)Nc3ccc(S(=O)(=O)N4CCOCC4)cc32)cc1 [10738/F11] | 15.8% |
| Cc1ccc(Oc2cccc(C=C3C(=O)Nc4ccc(CCCl)cc43)c2)cc1 [10738/G02] | −10.5% |
| O=C1Nc2ccc(CCCl)cc2C1=Cc1cccc(Oc2ccc(Cl)c(Cl)c2)c1 [10738/G03] | −4.1% |
| COc1ccc(C=C2C(=O)Nc3ccc(CCCl)cc32)cc1O [10738/G04] | −57.2% |
| O=C1Nc2ccc(CCCl)cc2C1=Cc1cc(O)ccc1[N+](=O)[O-] [10738/G05] | 4.0% |
| O=C1Nc2ccc(CCCl)cc2C1=Cc1cccc(O)c1O [10738/G06] | −52.4% |
| O=C1Nc2ccc(CCCl)cc2C1=Cc1cc(O)cc(O)c1 [10738/G07] | −19.3% |
| O=C1Nc2ccc(CCCl)cc2C1=Cc1ccc(Cl)c(Cl)c1 [10738/G08] | −15.2% |
| COc1ccccc1C=C1C(=O)Nc2ccc(CCCl)cc21 [10738/G09] | 4.1% |
| CC(C)c1ccc(C=C2C(=O)Nc3ccc(CCCl)cc32)cc1 [10738/G10] | −17.0% |
| CCCOc1ccc(C=C2C(=O)Nc3ccc(CCCl)cc32)cc1 [10738/G11] | −8.1% |
| Cc1ccc(Oc2cccc(C=C3C(=O)Nc4c(Br)cc(Br)c(C)c43)c2)cc1 [10738/H02] | −14.6% |
| Cc1c(Br)cc(Br)c2c1C(=Cc1cccc(Oc3ccc(Cl)c(Cl)c3)c1)C(=O)N2 [10738/H03] | −6.2% |
| COc1ccc(C=C2C(=O)Nc3c(Br)cc(Br)c(C)c32)cc1O [10738/H04] | −17.9% |
| Cc1c(Br)cc(Br)c2c1C(=Cc1cc(O)ccc1[N+](=O)[O-])C(=O)N2 [10738/H05] | −17.9% |
| Cc1c(Br)cc(Br)c2c1C(=Cc1cccc(O)c1O)C(=O)N2 [10738/H06] | −44.8% |
